Consider three compounds from ChEMBL document CHEMBL4402583, “Rational Substitution of ε-Lysine for α-Lysine Enhances the Cell and Membrane Selectivity of Pore-Forming Melittin” (J Med Chem, 2020).

In series [1] the test system is Enterococcus faecalis. Briefly: Antibacterial activity against Mel-5-resistant vancomycin-resistant Enterococcus faecalis 1010 assessed as reduction in bacterial growth measured after 24 hrs by broth microdilution method. As to conditions: Enterococcus faecalis, 1010, 24 h. In kind it is functional. On the technique in general: Dilution methods test growth across graded concentrations, often in twofold steps.

Series [2] has as its system Staphylococcus aureus. The series can be described thus: In vivo antibacterial activity against Staphylococcus aureus ATCC 29213 infected in C57BL/6 mouse assessed as reduction in bacterial burden by measuring log10 CFU/cornea at 0.3% administered topically as two times on day 1, four times on day 2 and two times on day 3 measured at 48 hrs post-final dose by 10 fold serial dilution method (reference value: 6.5 +/- 0.7 log10CFU). Type of series: functional.

Series [3] has as its system Enterococcus faecalis. The series can be described thus: Ratio of MIC for vancomycin-resistant Enterococcus faecalis 1010 to MIC for Mel-5-resistant vancomycin-resistant Enterococcus faecalis 1010 incubated for 24 hrs by broth microdilution method. In kind it is functional.
In series [4] the test system is Enterococcus faecalis. The series can be described thus: Antibacterial activity against vancomycin-resistant Enterococcus faecalis 1010 assessed as reduction in bacterial growth measured after 24 hrs by broth microdilution method. Type of series: functional. Particulars: Enterococcus faecalis, 1010, 24 h.
Series [5] concerns NHDF. Briefly: Cytotoxicity against HDF cells assessed as reduction in metabolic activity at 500 ug/ml incubated for 24 hrs by MTS assay relative to control. In kind it is ADME, cell-based. Also on record: scale not given: the % may be the effect or the level left. As to conditions: human. In general terms: Tetrazolium assays rely on reduction of a dye to a coloured formazan, in cell work by metabolically active cells.

Series [6] can be described thus: Cytotoxicity against HDF cells assessed as minimum cytotoxic concentration incubated for 24 hrs by MTS assay. As to conditions: human, HDF cells (NHDF, human dermal fibroblasts). Type of series: cell-based.
In series [7] the test system is Pseudomonas aeruginosa. Briefly: Antibacterial activity against Pseudomonas aeruginosa assessed as reduction in bacterial growth incubated for 24 hrs by broth microdilution method. In kind it is functional.
Series [8] has as its system Staphylococcus aureus. The series can be described thus: Antibacterial activity against Staphylococcus aureus assessed as reduction in bacterial growth incubated for 24 hrs by broth microdilution method. In kind it is functional.
For series [9], the system named is Candida albicans. The series can be described thus: Antifungal activity against Candida albicans assessed as reduction in fungal growth incubated for 24 hrs by broth microdilution method. In kind it is functional.
A short description of series [10]: Cytotoxicity against HDF cells assessed as cell viability at 125 ug/ml incubated for 24 hrs by MTS assay relative to control. As to conditions: human, HDF cells (NHDF, human dermal fibroblasts); read-out: Activity. Type of series: cell-based.
Series [11] in a line: Cytotoxicity against HDF cells assessed as cell viability at 250 ug/ml incubated for 24 hrs by MTS assay relative to control. Type of series: cell-based. As to conditions: human, HDF cells (NHDF, human dermal fibroblasts); read-out: Activity.
Series [12] concerns Lipid bilayer. The series can be described thus: Induction of pore formation in negatively charged DOPE/DOPG large unilamellar vesicles assessed as calcein release at 0.39 to 50 uM measured for 60 mins by fluorescence based assay.
Series [13] deals with Lipid bilayer. The series can be described thus: Induction of pore formation in zwitterionic DOPC/cholesterol large unilamellar vesicles assessed as calcein release at 0.39 to 50 uM measured for 60 mins by fluorescence based assay.
Series [14] concerns Staphylococcus aureus. Briefly: Antibacterial activity against methicillin-sensitive Staphylococcus aureus assessed as reduction in bacterial growth incubated for 24 hrs by broth microdilution method. Type of series: functional.
Series [15] concerns Staphylococcus aureus. The series can be described thus: Antibacterial activity against methicillin-resistance Staphylococcus aureus assessed as reduction in bacterial growth incubated for 24 hrs by broth microdilution method. Type of series: functional.
The test system of series [16] is Enterococcus. Briefly: Antibacterial activity against vancomycin-resistant Enterococcus assessed as reduction in bacterial growth incubated for 24 hrs by broth microdilution method. Type of series: functional.
In series [17] the test system is Acinetobacter baumannii. Briefly: Antibacterial activity against multidrug-resistant Acinetobacter baumannii assessed as reduction in bacterial growth incubated for 24 hrs by broth microdilution method. Type of series: functional.
The subject of series [18] is Enterobacteriaceae. The series can be described thus: Antibacterial activity against Carbapenem-Resistant Enterobacteriaceae assessed as reduction in bacterial growth incubated for 24 hrs by broth microdilution method. Type of series: functional.
For series [19], the system named is NHDF. The series can be described thus: Cytotoxicity against HDF cells at 250 ug/ml incubated for 24 hrs by Alexa Fluor […] phalloidin-FITC/Hoescht dye staining based fluorescence microscopic analysis. Type of series: cell-based. Particulars: human.
Series [20] is described as follows: Cytotoxicity against HDF cells assessed as minimum cytotoxic concentration incubated for 24 hrs by Alexa Fluor […] phalloidin-FITC/Hoescht dye staining based fluorescence microscopic analysis. Type of series: cell-based. As to conditions: human, HDF cells (NHDF, human dermal fibroblasts).
In series [21] the test system is Enterococcus faecalis. The series can be described thus: Ratio of MIC for Mel-5-resistant vancomycin-resistant Enterococcus faecalis 1010 to MIC for vancomycin-resistant Enterococcus faecalis 1010 incubated for 24 hrs by broth microdilution method. In kind it is functional.
Series [22] concerns Enterococcus faecalis. The series can be described thus: Resistance index, ratio of MIC for vancomycin-resistant Enterococcus faecalis 1010 measured after 14 serial passages by broth microdilution method to MIC for vancomycin-resistant Enterococcus faecalis 1010 incubated for 24 hrs by broth microdilution method. Type of series: functional.

≈ marks a conversion by molar mass, not a printed value. Bounds are passed on as bounds.

As a reminder, the MIC is the smallest concentration in the dilution series that meets the test's criterion for growth inhibition. The MIC50 is an inhibitory concentration at the 50% level, which refers to growth in some studies and to a panel of isolates in others.

For `COc1c(N2CCNC(C)C2)c(F)cc2c(=O)c(C(=O)O)cn(C3CC3)c12` (stereo not given) [GATIFLOXACIN], the MIC was 8 µg/mL (≈ 21.3 µM) in series [1] and 4 µg/mL (≈ 10.7 µM) in series [4]. Further, the Activity in series [2] came out at 2.5 log10CFU. In addition, the Ratio in [3] stood at 8.

In the case of `CC[C@H](C)[C@H](NC(=O)CN)C(=O)NCC(=O)N[C@@H](C)C(=O)N[C@H](C(=O)N[C@@H](CC(C)C)C(=O)NCCC[C@@H](CN)C(=O)N[C@H](C(=O)N[C@@H](CC(C)C)C(=O)N[C@H](C(=O)N[C@H](C(=O)NCC(=O)N[C@@H](CC(C)C)C(=O)N1CCC[C@H]1C(=O)N[C@@H](C)C(=O)N[C@@H](CC(C)C)C(=O)N[C@H](C(=O)N[C@@H](CO)C(=O)N[C@@H](Cc1c[nH]c2ccccc12)C(=O)N[C@H](C(=O)N[C@@H](CCCCN)C(=O)N[C@@H](CCCNC(=N)N)C(=O)N[C@@H](CCCCN)C(=O)N[C@@H](CCCNC(=N)N)C(=O)N[C@@H](CCC(N)=O)C(=O)N[C@@H](CCC(N)=O)C(N)=O)[C@@H](C)CC)[C@@H](C)CC)[C@@H](C)O)[C@@H](C)O)C(C)C)C(C)C`, the Activity in series [5] is 100%; in series [12], 41.8%; in [13], 7.8%; in [19] it was “Toxic”. Further, the MCC at 24 h in series [6] and in [20] was greater than 125 µg/mL each time. Moreover, the MIC in [7] fell in the range of 8 to 64 µg/mL (≈ 2.81 to 22.5 µM); in [8] it was 8 to 32 µg/mL (≈ 2.81 to 11.2 µM); in series [9], 4 to 8 µg/mL (≈ 1.41 to 2.81 µM); in series [14] it was 4 to 32 µg/mL (≈ 1.41 to 11.2 µM); in series [16], 4 to 32 µg/mL (≈ 1.41 to 11.2 µM); in [17], 2 to 4 µg/mL (≈ 0.703 to 1.41 µM). For the same compound, the MIC in series [18] lay in the range of 4 to 64 µg/mL (≈ 1.41 to 22.5 µM). Moreover, the MIC50 was 16 µg/mL (≈ 5.62 µM) in series [7]; 4 µg/mL (≈ 1.41 µM) in series [9]; 16 µg/mL (≈ 5.62 µM) in series [14]; 16 µg/mL (≈ 5.62 µM) in series [15]; 8 µg/mL (≈ 2.81 µM) in series [16]; 2 µg/mL (≈ 0.703 µM) in [17]. The MIC50 in [18] stood at 8 µg/mL (≈ 2.81 µM). Moreover, in series [10], the viability at 24 h, 125 ug/ml was determined as 112%. Besides, the viability at 24 h, 250 ug/ml in series [11] was found to be 32.4%.

For the compound `CCCCCCCCCC(=O)N[C@@H](Cc1c[nH]c2ccccc12)C(=O)N[C@H](CC(N)=O)C(=O)N[C@@H](CC(=O)O)C(=O)N[C@@H]1C(=O)NCC(=O)N[C@@H](CCCN)C(=O)N[C@@H](CC(=O)O)C(=O)N[C@H](C)C(=O)N[C@@H](CC(=O)O)C(=O)NCC(=O)N[C@H](CO)C(=O)N[C@@H]([C@@H](C)CC(=O)O)C(=O)N[C@@H](CC(=O)c2ccccc2N)C(=O)O[C@@H]1C`, the figures for the MIC in [1] and in [4] were greater than 512 µg/mL and 64 µg/mL (≈ 39.5 µM), respectively. For the same compound, the results for the Ratio in series [21] and in series [22] were greater than 128 and 4, respectively.
